From patent US6599859B1, “Mulch/herbicide composition” (Dow AgroSciences LLC, priority 2001, dated 2003)

System: weeds
Assay: Weed control by mulch, dithiopyr and mulch/dithiopyr compositions applied to the ground
Assay type: in vivo
Conditions: dithiopyr alone, no mulch, application rate 560 grams per hectare
Source text: In the following examples, dithiopyr is first dissolved in a warm solvent such as dipropylene glycol at 12-18 percent, by weight. This solution was then sprayed onto a clay carrier.
The results provided by the composition of this invention were compared with the results obtained using the herbicide and the mulch individually.

Compound: CSC(=O)c1c(C(F)F)nc(C(F)(F)F)c(C(=O)SC)c1CC(C)C [Dithiopyr, 2-difluoromethyl-4-(2-methylpropyl)-6-trifluoromethyl-3,5-pyridinedicarbothioic acid, S,S-dimethyl ester]
- % Weed Control: 30%
